In patent US11931424B2, “Combination MCL-1 inhibitors with anti-body drug conjugates” (Gilead Sciences, Inc., priority 2021, dated 2024):

Tested on: panel of breast cancer cell lines
Assay: Compound A with targeted agents and chemotherapies, 72-hour in vitro proliferation assays
Assay type: cell-based
Conditions: 72-hour proliferation
[1] = BT-20 cell line, compound A × partner
[2] = CAL-51 cell line, compound A × partner
[3] = CAL-85-1 cell line, compound A × partner
[4] = CAL-120 cell line, compound A × partner
[5] = CAL-148 cell line, compound A × partner
[6] = CAMA-1 cell line, compound A × partner
[7] = DU-4475 cell line, compound A × partner
[8] = EVSA-T cell line, compound A × partner
[9] = HCC1143 cell line, compound A × partner
[10] = MCF7 cells, Compound A × partner agent

With `CCN1CCN(Cc2ccc(Nc3ncc(F)c(-c4cc(F)c5nc(C)n(C(C)C)c5c4)n3)nc2)CC1` [Abemaciclib] the “Best CI” value [1] was 0.79, the “Bliss Volume” value [1] was 3.95 and the HSA volume [1] was 5.53. The “Loewe Volume” value [1] was 5.32, the “Best CI” value [2] was 1.31 and the “Bliss Volume” value [2] was 1.55. The HSA volume [2] was −0.56, the “Loewe Volume” value [2] was 2.06 and the “Synergy Score” value [2] was 2.51. For the same compound, the “Best CI” value [3] was 0.77, the “Bliss Volume” value [3] was 2.60 and the HSA volume [3] was 3.28. The “Loewe Volume” value [3] was 3.04, the “Synergy Score” value [3] was 6.47 and the “Best CI” value [4] was 1.78. The “Bliss Volume” value [4] was −5.16, the HSA volume [4] was −5.98 and the “Loewe Volume” value [4] was −5.00. For the same compound, the “Synergy Score” value [4] was 1.03, the “Best CI” value [5] was 0.70 and the “Bliss Volume” value [5] was 6.48. The HSA volume [5] was 5.91, the “Loewe Volume” value [5] was 6.28 and the “Synergy Score” value [5] was 15.50. The “Best CI” value [6] was 0.32, the “Bliss Volume” value [6] was −6.25 and the HSA volume [6] was −10.24. For the same compound, the “Loewe Volume” value [6] was −10.33, the “Synergy Score” value [6] was 1.56 and the “Best CI” value [7] was 1.25. For the same compound, the “Bliss Volume” value [7] was 6.92, the HSA volume [7] was 5.32 and the “Loewe Volume” value [7] was 5.72. The “Synergy Score” value [7] was 5.07, the “Best CI” value [8] was 0.64 and the “Bliss Volume” value [8] was 0.41. For the same compound, the HSA volume [8] was −2.86, the “Loewe Volume” value [8] was −2.48 and the “Synergy Score” value [8] was 0.77. The “Best CI” value (HCC38, compound A × partner) was 0.83, the “Bliss Volume” value (HCC38, compound A × partner) was −4.64 and the HSA volume (HCC38, compound A × partner) was −4.71. The “Loewe Volume” value (HCC38, compound A × partner) was −4.54, the “Synergy Score” value (HCC38, compound A × partner) was 6.14 and the “Best CI” value (HCC70, compound A × partner) was 0.92. For the same compound, the “Bliss Volume” value (HCC70, compound A × partner) was 10.18, the HSA volume (HCC70, compound A × partner) was 6.99 and the “Loewe Volume” value (HCC70, compound A × partner) was 8.33. The “Synergy Score” value (HCC70, compound A × partner) was 18.15, the “Best CI” value [9] was 0.41 and the “Bliss Volume” value [9] was 10.33. For the same compound, the HSA volume [9] was 2.87, the “Loewe Volume” value [9] was 9.43 and the “Synergy Score” value [9] was 7.43. For the same compound, the “Best CI” value (HCC1569, compound A × partner) was 0.18, the “Bliss Volume” value (HCC1569, compound A × partner) was 14.07 and the HSA volume (HCC1569, compound A × partner) was 13.17. For the same compound, the “Loewe Volume” value (HCC1569, compound A × partner) was 14.38, the “Synergy Score” value (HCC1569, compound A × partner) was 19.73 and the “Bliss Volume” value (HCC1806, compound A × partner) was 4.89. For the same compound, the HSA volume (HCC1806, compound A × partner) was 0.30, the “Loewe Volume” value (HCC1806, compound A × partner) was 3.10 and the “Synergy Score” value (HCC1806, compound A × partner) was 4.43. The “Best CI” value (HCC1937, compound A × partner) was 0.26, the “Bliss Volume” value (HCC1937, compound A × partner) was 16.67 and the “Loewe Volume” value (HCC1937, compound A × partner) was 16.44. The “Synergy Score” value (HCC1937, compound A × partner) was 28.56, the “Best CI” value (HCC1954, compound A × partner) was 0.89 and the “Bliss Volume” value (HCC1954, compound A × partner) was 1.45. The HSA volume (HCC1954, compound A × partner) was −0.39, the “Loewe Volume” value (HCC1954, compound A × partner) was −1.29 and the “Synergy Score” value (HCC1954, compound A × partner) was 12.74. The “Best CI” value (HCC2218, compound A × partner) was 1.44, the “Bliss Volume” value (HCC2218, compound A × partner) was −2.40 and the HSA volume (HCC2218, compound A × partner) was −5.74. For the same compound, the “Loewe Volume” value (HCC2218, compound A × partner) was −6.61, the “Synergy Score” value (HCC2218, compound A × partner) was 4.14 and the “Best CI” value (HDQ-P1, compound A × partner) was 0.82. The “Bliss Volume” value (HDQ-P1, compound A × partner) was −0.79, the HSA volume (HDQ-P1, compound A × partner) was −0.19 and the “Loewe Volume” value (HDQ-P1, compound A × partner) was 0.43. For the same compound, the “Synergy Score” value (HDQ-P1, compound A × partner) was 2.48, the “Best CI” value (HMC-1-8, compound A × partner) was 0.30 and the “Bliss Volume” value (HMC-1-8, compound A × partner) was 24.27. For the same compound, the HSA volume (HMC-1-8, compound A × partner) was 13.46, the “Loewe Volume” value (HMC-1-8, compound A × partner) was 13.14 and the “Synergy Score” value (HMC-1-8, compound A × partner) was 24.23. For the same compound, the “Best CI” value (JIMT-1, compound A × partner) was 1.23, the “Bliss Volume” value (JIMT-1, compound A × partner) was 1.74 and the HSA volume (JIMT-1, compound A × partner) was 1.30. For the same compound, the “Loewe Volume” value (JIMT-1, compound A × partner) was 1.54, the “Synergy Score” value (JIMT-1, compound A × partner) was 1.34 and the “Best CI” value (KPL-1, compound A × partner) was 0.77. For the same compound, the “Bliss Volume” value (KPL-1, compound A × partner) was −3.02, the HSA volume (KPL-1, compound A × partner) was −1.63 and the “Loewe Volume” value (KPL-1, compound A × partner) was −2.87. For the same compound, the “Best CI” value [10] was 1.06, the “Bliss Volume” value [10] was 4.62 and the HSA volume [10] was 4.76. For the same compound, the “Synergy Score” value [10] was 8.46.
